Measured values from US4690940A, “Anti-hypertensive agents” (University of Miami, priority 1979, dated 1987).
Non-standard residues stand in square brackets, D forms with d. Residues, ends and D or L forms follow the SMILES beside them. No end group written: not given here. pGlu = O=C1CC[C@@H](C(=O)O)N1

How the values were obtained:
ACE [1] = settings: competitive substrates; cited from earlier work
[2] = test system: ACE purified from human urine; test: ACE activity assay (hydrolysis of Benzoyl-GlyHisLeu), I50 determination; assay type: biochemical; settings: in vitro, pH 8.0, 37° C
Procedure: These factors include the source of enzyme, its purity, the substrate used and its concentration, and the composition of the assay buffer. All I50 data reported herein have been performed with the same assay system and same enzyme (human urinary ACE) and with an approximately 1/2Km level of substrate and are therefore internally consistent.
ACE activity assay. […] To initiate the assay, 40 μl of enzyme and 10 μl of water or inhibitor dissolved in water were preincubated for five minutes at 37° C. […] To terminate the reaction, 1 ml of 0.1M HCl was added, following which 1 ml of ethyl acetate was added. The mixture was agitated on a rotary mixer and centrifuged briefly to separate the phases.
An aliquot, 500 μl, of the ethyl acetate layer was transferred to a liquid scintillation vial containing 10 ml of Riafluor, trademark New England Nuclear Corporation, Boston, Massachusetts. For determination of I50 values, enzyme activity in the presence of inhibitor at a series of different concentrations was compared to activity in the absence of inhibitor.

ACE [3] = settings: disulfide formed by dimerization of SQ 14,225; believed; cited from earlier work
[4] = test system: Blood Pressure Response to 400 ng/kg of Angiotensin I; test: Oral effectiveness: blood pressure response to angiotensin I in anesthetized rats; assay type: in vivo, rat; settings: 400 ng/kg angiotensin I, before drug
Procedure: (§1) Rats (210-290 g body weight) were fasted overnight and then anesthetized with intraperitoneal pentobarbital, 50-60 mg/kg. Tracheostomy was performed and the animals were ventilated mechanically. A cannula was inserted into a femoral vein for injection of angiotensin I, and a second cannula was inserted into a common carotid artery for direct measurement of arterial blood pressure. Heparin, 1,000 units, was injected via the femoral vein to prevent coagulation. Blood pressure was measured with a pressure transducer connected to a polygraph. The rats were injected with 400 ng/kg of angiotensin I in 20 μl of 0.9 g % NaCl; an amount of angiotensin I sufficient to raise mean arterial blood pressure by 39 mm Hg. […] At timed intervals, the effects of 400 ng/kg of angiotensin I on mean arterial blood pressure were tested.

[5] = test system: Blood Pressure Response to 400 ng/kg of Angiotensin I; test: Intravenous effectiveness: blood pressure response to angiotensin I in anesthetized rats; assay type: in vivo, rat; settings: 400 ng/kg angiotensin I, -5 minutes
Procedure: as §1
At time intervals, the effects of angiotensin I, 400 ng/kg, on mean arterial blood pressure were tested.

Compound | Km relative to angiotensin I (ACE [1]) | IC50 [2] | further results
C[C@H](NC(=O)[C@H](Cc1c[nH]c2ccccc12)NC(=O)[C@H](CCCCN)NC(=O)[C@@H]1CCC(=O)N1)C(=O)N1CCC[C@H]1C(=O)O [BPP5a, <GluLysTrpAlaPro] ([pGlu]KWAP-OH) | a lower Km than angiotensin I | – | –
C[C@H](CSC(=O)[C@H](Cc1ccccc1)NC(=O)[C@H](CCCCNC(=O)OC(C)(C)C)NC(=O)C1CCCC1)C(=O)N1CCC[C@H]1C(=O)O [Example 17] | – | 25 nM | –
C[C@H](CSC(=O)[C@H](Cc1ccccc1)NC(=O)[C@H](CCCCN)NC(=O)C1CCCC1)C(=O)N1CCC[C@H]1C(=O)O [Example 18, N^α -[3-(N^α -cyclopentylcarbonyl-L-lysyl-L-phenylalanylthio)2-D-methylpropanoyl]-L-proline] | – | 15 nM | –
C[C@H](CSSC[C@@H](C)C(=O)N1CCC[C@H]1C(=O)O)C(=O)N1CCC[C@H]1C(=O)O [disulfide] | – | – | inhibitory activity of dimer (ACE [3]): largely inactive as an inhibitor
DRVYIHPFHL [angiotensin I] | – | – | rise of mean arterial blood pressure by angiotensin I [4]: 39 mm Hg; rise of mean arterial blood pressure by angiotensin I [5]: 39 mm Hg
RPPGFSPFR [bradykinin] | a lower Km than angiotensin I | – | –
